Results on 17 compounds are retold here after patent publication EP3529257B1, “[…] METHODS OF USE THEREOF” (Sage Therapeutics, Inc., priority 2016, dated 2018).

As a reminder, the Emax is the maximal effect, on the per cent scale that the assay sets. Usually EC50 stands for the midpoint of the concentration-response curve. Read a high EC50 as weaker potency.

For assay [1], the target named is T1, GluN2B glutamate receptors (Homo sapiens, UniProt Q05586+Q13224).
T1 construct: expressed in transfected cells; host or cells: mammalian cells (line not described for GluN2B)
The assay is described as follows: Whole-cell patch clamp of mammalian cells (Ionworks Barracuda), positive allosteric modulation (PAM) of NMDA receptor, 2B. To be noted: for Emax / Avg Emax 2B (%): % activation of current elicited with EC20 L-glutamate and 30 µM glycine; for EC50: co-application with EC20 L-glutamate and 30 µM glycine, 8-point concentration-response. It counts as cell-based. The protocol: (§1) The measurements were perfomed using Ion Works Barracuda platform following this procedure: • Electrophysiological Procedures: • a) Intracellular solution (mM): 50 mM CsCl, 90 mM CsF, 2 mM MgCl2, 5 mM EGTA, 10 mM HEPES. Adjust to pH 7.2 with CsOH. • b) Extracellular solution, HB-PS (composition in mM): NaCl, 137; KCl, 1.0; CaCl2, 5; HEPES, 10; Glucose, 10; pH adjusted to 7.4 with NaOH (refrigerated until use). • c) Holding potential: -70 mV, potential during agonist/PAM application: -40 mV. • Recording procedure: • a) Extracellular buffer will be loaded into the PPC plate wells (11 µL per well). Cell suspension will be pipetted into the wells (9 µL per well) of the PPC planar electrode. • b) Whole-cell recording configuration will be established via patch perforation with membrane currents recorded by on-board patch clamp amplifiers. • c) Two recordings (scans) will be performed. First, during pre-application of test article alone (duration of pre-application - 5 min) and second, during test articles and agonist (EC20 L-glutamate and 30 µM glycine) co-application to detect positive modulatory effects of the test article.
(§2) Test Article Administration: The first pre-application will consist of the addition of 20 µL of 2X concentrated test article solution and, second, of 20 µL of 1X concentrated test article and agonist at 10 µL/s (2 second total application time).
(§3) PAM concentration-response data will be fitted to an equation of the form: % Activation = % L−glutamate EC20 + {(%MAX−%L−glutamateEC20)/[1+(([Test]/; EC50))^N]}, [formula] where [Test] will be the concentration of PAM (test article), EC50 will be the concentration of PAM producing half-maximal activation, N will be the Hill coefficient, % L-glutamate EC20 will be the percentage of the current Elicited with L-glutamate EC20, % MAX is the percentage of the current activated with the highest dose of PAM co-admitted with L-glutamate EC20 and % Activation will be the percentage of the current elicited with L-glutamate EC10-30 at each PAM concentration.
(§4) The maximal amplitude of the evoked currents are measured and defined as Peak Current Amplitude (PCA).
(In patch-clamp work, channel activity is measured electrically.)

For assay [2], the target named is T2, GlunN1/GluN2A glutamate receptors (Homo sapiens, UniProt Q05586+Q12879).
T2 construct: expressed in transfected cells
The assay is described as follows: Whole-cell patch clamp of mammalian cells (Ionworks Barracuda), positive allosteric modulation (PAM) of NMDA receptor, 2A. In kind it is cell-based. To be noted: for Emax: HEK293, HEK293 cells; for Emax / Avg Emax 2A (%): % activation of current elicited with EC20 L-glutamate and 30 µM glycine; for Avg Emax 2A (%) / EC50: HEK293 cells; for EC50: co-application with EC20 L-glutamate and 30 µM glycine, 8-point concentration-response. As for the experimental part:
as §1, §2, §3, §4

T2 sequence (Q12879 23-1464, other chains not shown): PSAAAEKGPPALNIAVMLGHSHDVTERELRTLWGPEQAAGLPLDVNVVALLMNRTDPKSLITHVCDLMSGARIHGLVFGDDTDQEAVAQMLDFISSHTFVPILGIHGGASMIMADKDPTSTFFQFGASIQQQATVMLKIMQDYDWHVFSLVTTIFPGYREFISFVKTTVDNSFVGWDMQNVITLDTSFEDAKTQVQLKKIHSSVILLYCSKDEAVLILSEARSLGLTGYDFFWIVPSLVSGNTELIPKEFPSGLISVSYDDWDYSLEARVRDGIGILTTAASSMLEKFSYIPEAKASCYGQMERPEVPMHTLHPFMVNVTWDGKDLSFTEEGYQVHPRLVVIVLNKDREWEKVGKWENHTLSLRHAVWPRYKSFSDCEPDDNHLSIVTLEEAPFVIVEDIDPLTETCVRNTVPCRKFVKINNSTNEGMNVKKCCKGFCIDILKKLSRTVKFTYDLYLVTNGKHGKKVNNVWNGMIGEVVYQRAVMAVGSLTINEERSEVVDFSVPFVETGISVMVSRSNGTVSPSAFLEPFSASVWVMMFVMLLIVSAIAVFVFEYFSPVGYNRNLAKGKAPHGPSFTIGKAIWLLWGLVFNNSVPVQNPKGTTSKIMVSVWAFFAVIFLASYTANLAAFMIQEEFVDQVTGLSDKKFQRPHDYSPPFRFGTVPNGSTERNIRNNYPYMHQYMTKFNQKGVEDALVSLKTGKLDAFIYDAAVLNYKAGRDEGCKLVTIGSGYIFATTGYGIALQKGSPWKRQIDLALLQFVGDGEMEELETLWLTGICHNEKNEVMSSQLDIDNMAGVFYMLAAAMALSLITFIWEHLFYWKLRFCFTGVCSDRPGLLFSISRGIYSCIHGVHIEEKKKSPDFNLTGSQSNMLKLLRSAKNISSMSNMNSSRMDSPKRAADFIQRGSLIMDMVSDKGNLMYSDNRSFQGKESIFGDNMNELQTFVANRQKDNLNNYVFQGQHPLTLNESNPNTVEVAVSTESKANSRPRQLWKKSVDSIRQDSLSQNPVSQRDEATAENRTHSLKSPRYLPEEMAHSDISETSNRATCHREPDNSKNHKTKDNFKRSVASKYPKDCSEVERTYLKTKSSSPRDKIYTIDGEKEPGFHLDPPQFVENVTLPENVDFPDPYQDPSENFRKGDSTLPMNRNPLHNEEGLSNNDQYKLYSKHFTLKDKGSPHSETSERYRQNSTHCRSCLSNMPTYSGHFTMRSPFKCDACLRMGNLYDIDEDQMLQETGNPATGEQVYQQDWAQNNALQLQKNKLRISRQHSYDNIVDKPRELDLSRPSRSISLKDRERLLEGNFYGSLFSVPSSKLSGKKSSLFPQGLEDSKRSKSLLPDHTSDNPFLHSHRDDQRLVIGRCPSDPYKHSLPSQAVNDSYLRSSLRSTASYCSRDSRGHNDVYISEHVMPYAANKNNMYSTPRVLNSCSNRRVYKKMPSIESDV
T1 sequence (Q13224 27-1484, other chains not shown): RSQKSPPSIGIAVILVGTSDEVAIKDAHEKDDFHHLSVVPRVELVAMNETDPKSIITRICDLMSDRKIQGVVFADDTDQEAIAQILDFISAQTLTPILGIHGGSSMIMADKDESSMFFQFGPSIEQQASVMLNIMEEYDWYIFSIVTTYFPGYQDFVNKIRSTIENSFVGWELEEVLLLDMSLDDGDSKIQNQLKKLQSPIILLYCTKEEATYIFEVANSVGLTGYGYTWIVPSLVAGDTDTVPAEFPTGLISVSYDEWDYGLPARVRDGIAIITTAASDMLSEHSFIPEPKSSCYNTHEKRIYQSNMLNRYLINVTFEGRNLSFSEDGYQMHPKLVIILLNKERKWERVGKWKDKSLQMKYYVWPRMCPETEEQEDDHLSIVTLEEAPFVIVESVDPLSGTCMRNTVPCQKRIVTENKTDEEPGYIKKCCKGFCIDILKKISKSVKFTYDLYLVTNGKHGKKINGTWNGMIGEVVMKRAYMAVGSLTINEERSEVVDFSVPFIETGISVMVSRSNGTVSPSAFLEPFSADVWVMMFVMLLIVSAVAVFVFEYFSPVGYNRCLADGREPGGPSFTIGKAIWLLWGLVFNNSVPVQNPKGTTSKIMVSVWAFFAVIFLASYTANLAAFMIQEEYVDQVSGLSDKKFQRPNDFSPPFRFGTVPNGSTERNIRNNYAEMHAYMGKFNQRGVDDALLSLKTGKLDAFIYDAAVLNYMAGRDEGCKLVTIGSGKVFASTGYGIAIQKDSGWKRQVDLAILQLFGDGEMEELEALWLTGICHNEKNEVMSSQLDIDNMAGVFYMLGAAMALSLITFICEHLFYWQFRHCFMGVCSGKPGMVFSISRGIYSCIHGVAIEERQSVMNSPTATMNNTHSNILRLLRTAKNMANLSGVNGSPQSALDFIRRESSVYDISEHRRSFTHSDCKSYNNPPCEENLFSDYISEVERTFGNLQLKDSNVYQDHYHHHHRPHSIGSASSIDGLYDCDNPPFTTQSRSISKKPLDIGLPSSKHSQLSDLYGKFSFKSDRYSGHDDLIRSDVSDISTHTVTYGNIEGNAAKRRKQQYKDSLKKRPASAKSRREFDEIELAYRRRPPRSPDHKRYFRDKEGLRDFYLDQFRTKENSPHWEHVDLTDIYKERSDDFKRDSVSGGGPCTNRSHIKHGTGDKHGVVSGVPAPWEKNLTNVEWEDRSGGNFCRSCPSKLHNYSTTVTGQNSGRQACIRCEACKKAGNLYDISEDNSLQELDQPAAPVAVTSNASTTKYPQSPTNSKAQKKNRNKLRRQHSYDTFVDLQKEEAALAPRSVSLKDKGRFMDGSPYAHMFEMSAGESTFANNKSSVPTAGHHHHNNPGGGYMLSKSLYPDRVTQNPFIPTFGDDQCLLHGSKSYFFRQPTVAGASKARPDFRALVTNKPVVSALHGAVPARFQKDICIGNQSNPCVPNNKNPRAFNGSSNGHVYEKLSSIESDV

Regarding `C[C@H](CCC1(O)CCC(F)(F)CC1)[C@H]1CC[C@H]2[C@@H]3CC[C@H]4C[C@](O)(C(F)(F)F)CC[C@]4(C)[C@H]3CC[C@]12C` [Compound 8], the results for the Emax in assay [1] and in assay [2] were 322% and 402%, respectively.

With `CC[C@]1(O)CC[C@H]2C(=CC[C@@H]3[C@@H]2CC[C@]2(C)[C@@H]([C@H](C)CCC[C@@H](O)C(C)C)CC[C@@H]32)C1` [Compound 10114], in assay [1], the “Avg Emax 2B (%)” value turned out to be 179.1% and the EC50 amounted to 506 nM. Also, in assay [2], the “Avg Emax 2A (%)” value was found to be 146.3% and it took 321 nM to reach a half-maximal effect (EC50).

Regarding `C[C@H](CC[C@](C)(O)C(F)(F)F)[C@H]1CC[C@H]2[C@@H]3CC=C4C[C@](O)(C(F)(F)F)CC[C@]4(C)[C@H]3CC[C@]12C` [Compound 3035], the Emax in assay [1] came to 611%; in assay [2] it was 323%.

Regarding `C[C@H](CC[C@]1(O)CCOC1)[C@H]1CC[C@H]2[C@@H]3CC=C4C[C@](O)(C(F)(F)F)CC[C@]4(C)[C@H]3CC[C@]12C` [Compound 3496], the maximal effect (Emax) in assay [1] came to 369%; in assay [2], 319%.

In the case of `C[C@H](CCC(O)Cc1ccccc1)[C@H]1CC[C@H]2[C@@H]3CC=C4C[C@@](C)(O)CC[C@]4(C)[C@H]3CC[C@]12C` (stereo partly shown) [Compound 660], in assay [1], the “Avg Emax 2B (%)” value is 281.1% and it took 517 nM to reach a half-maximal effect (EC50). Besides, in assay [2], the “Avg Emax 2A (%)” value is reported as 195.2% and the midpoint of the response, the EC50, lay at 701 nM.

As for `CC[C@]1(O)CC[C@H]2C(=CC[C@@H]3[C@@H]2CC[C@]2(C)[C@@H]([C@H](C)CCCC4(O)CCC(C)(C)CC4)CC[C@@H]32)C1` [Compound 10317], in assay [1], the “Avg Emax 2B (%)” value stood at 59.9% and the 50% effective concentration (EC50) was more than 10000 nM. Moreover, in assay [2], the “Avg Emax 2A (%)” value was determined as 56.7% and the EC50 was more than 10000 nM.

Consider `C[C@H](CCC1(O)CCC(F)(F)CC1)[C@H]1CC[C@H]2[C@@H]3CC=C4C[C@](O)(C(F)(F)F)CC[C@]4(C)[C@H]3CC[C@]12C` [Compound 2392], for which the Emax in assay [1] was 166%; in assay [2], 230%.

For `C[C@H](CC[C@H](O)C(C)(C)C)[C@H]1CC[C@H]2[C@@H]3CC[C@H]4C[C@](O)(C(F)(F)F)CC[C@]4(C)[C@H]3CC[C@]12C` [Compound 2184], the maximum response (Emax) in assay [1] is 258%; in assay [2] it was 234%.

Consider `C[C@H](CC[C@H](O)C(C)(C)C)[C@H]1CC[C@H]2[C@@H]3CC=C4C[C@](O)(C(F)(F)F)CC[C@]4(C)[C@H]3CC[C@]12C` [Compound 3507], for which the Emax in assay [1] came to 241%; in assay [2] it was 166%.

With `CC(C)[C@H](O)CC[C@@H](C)[C@H]1CC[C@H]2[C@@H]3CC=C4C[C@](O)(C(F)(F)F)CC[C@]4(C)[C@H]3CC[C@]12C` [Compound 1-B], the Emax in assay [1] was 285%; in assay [2], 262%.

Regarding `CC[C@]1(O)CC[C@H]2C(=CC[C@@H]3[C@@H]2CC[C@]2(C)[C@@H]([C@H](C)CCC4(O)CCOC4)CC[C@@H]32)C1` (stereo partly shown) [Compound 8689], the Emax came to 439% in assay [1] and 320% in assay [2].

For `C[C@H](CCC[C@H](O)C(F)(F)F)[C@H]1CC[C@H]2[C@@H]3CC[C@H]4C[C@](O)(C(F)(F)F)CC[C@]4(C)[C@H]3CC[C@]12C` [Compound 11934], in assay [1], the “Avg Emax 2B (%)” value came out at 70.0% and it took 470 nM to reach a half-maximal effect (EC50). Moreover, in assay [2], the “Avg Emax 2A (%)” value is 113.4% and a half-maximal response (EC50) required 729 nM.

On to `CCC1(O)CCC2(C)C(=CCC3C2CCC2(C)C(C(C)CCC(O)c4ccccc4F)CCC32)C1` (single isomer, unassigned) [Compound 7281], for which the Emax in assay [1] is 126%; in assay [2], 98.1%.

As for `C[C@H](CCC1(O)CCC(OC(F)F)CC1)[C@H]1CC[C@H]2[C@@H]3CC[C@H]4C[C@](O)(C(F)(F)F)CC[C@]4(C)[C@H]3CC[C@]12C` (stereo partly shown) [Compound 5131], in assay [1], the “Avg Emax 2B (%)” value is 39.0% and the EC50 is more than 10000 nM. For the same compound, in assay [2], the “Avg Emax 2A (%)” value was 52.9% and the concentration giving a half-maximal response (EC50) turned out to be 33.6 nM.

`C[C@H](CCC1(O)CCC(C(C)(C)C)CC1)[C@H]1CC[C@H]2[C@@H]3CC[C@H]4C[C@](O)(C(F)(F)F)CC[C@]4(C)[C@H]3CC[C@]12C` (stereo partly shown) [Compound 4360]: the Emax in assay [1] was 14.6%; in assay [2], 38.1%. The EC50 in assay [1] and in assay [2] was more than 10000 nM in each case.

Regarding `CC(C)[C@@H](O)CC[C@@H](C)[C@H]1CC[C@H]2[C@@H]3CC=C4C[C@](O)(C(F)(F)F)CC[C@]4(C)[C@H]3CC[C@]12C` [Compound 1-A], the Emax in assay [1] turned out to be 250%; in assay [2], 275%.

In the case of `CC[C@]1(O)CC[C@H]2C(=CC[C@@H]3[C@@H]2CC[C@]2(C)[C@@H]([C@H](C)CC[C@@H](O)C(C)C)CC[C@@H]32)C1` [Compound 8463], the Emax in assay [1] worked out at 324%; in assay [2], 291%.
